{"source": "patent US20130005721A1", "about": "“INDOLIZINE INHIBITORS OF 5-LIPOXYGENASE” (PANMIRA PHARMACEUTICALS, LLC, priority 2009, published 2013)", "data": [{"test_system": "human leukocytes (LTB4 production, calcium ionophore stimulated)", "test": "Human Leukocyte LTB4 Inhibition Assay", "assay_type": "cell-based", "settings": "Leukocyte, LTB4 by ELISA, read-out: LTB4 HLA IC50", "outline": "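Human peripheral leukocytes (1.25×10^5 cells/ml) were isolated by dextran sedimentation and hypotonic RBC lysis. They were preincubated with drug 5 min at 37 °C, then stimulated 30 min at 37 °C with calcium ionophore […] (working solution 1.25 mM). Supernatant LTB4 was measured by ELISA. IC50 versus vehicle came from nonlinear regression of % inhibition against log concentration.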", "units": {"IC50": "nM"}, "values": [{"smiles": "CCC(O)(c1cn(Cc2ccn3c(-c4ccc(C)nc4)c(C#N)cc3c2)nn1)C(F)(F)F", "note": "(single isomer, unassigned) [Compound 1-76, 7-[4-(1-Hydroxy-1-trifluoromethyl-propyl)-[1,2,3]triazol-1-ylmethyl]-3-(6-methyl-pyridin-3-yl)-indolizine-2-carbonitrile]", "IC50": "< 300"}, {"smiles": "CCOC(=O)c1cc2cc(Cn3cc(C(O)(CC)C(F)(F)F)nn3)ccn2c1-c1ccc(=O)n(C)c1", "note": "(stereo not shown) [Compound 1-62, 7-[4-(1-Hydroxy-1-trifluoromethyl-propyl)-[1,2,3]triazol-1-ylmethyl]-3-(1-methyl-6-oxo-1,6-dihydro-pyridin-3-yl)-indolizine-2-carboxylic acid ethyl ester]", "IC50": "300 to 1000"}, {"smiles": "CCC(O)(c1cn(Cc2ccn3c(-c4cccnc4)c(C(N)=O)cc3c2)nn1)C(F)(F)F", "note": "(stereo not shown) [Compound 1-25, 7-[4-(1-Hydroxy-1-trifluoromethyl-propyl)-[1,2,3]triazol-1-ylmethyl]-3-pyridin-3-yl-indolizine-2-carboxylic acid amide]", "IC50": "> 1000"}, {"smiles": "CCOC(=O)c1c(Br)c2cc(CNc3nnc(C(O)(CC)C(F)(F)F)o3)ccn2c1-c1ccc(F)cc1", "note": "(stereo not shown) [Compound 1-15, 1-Bromo-3-(4-fluoro-phenyl)-7-{[5-(1-hydroxy-1-trifluoromethyl-propyl)-[1,3,4]oxadiazol-2-ylamino]-methyl}-indolizine-2-carboxylic acid ethyl ester]", "IC50": "< 300"}, {"smiles": "CCC(O)(c1cn(Cc2ccn3c(-c4cccc(F)c4)c(C(N)=O)cc3c2)nn1)C(F)(F)F", "note": "(stereo not shown) [Compound 1-48, 3-(3-Fluoro-phenyl)-7-[4-(1-hydroxy-1-trifluoromethyl-propyl)-[1,2,3]triazol-1-ylmethyl]-indolizine-2-carboxylic acid amide]", "IC50": "< 300"}, {"smiles": "CCC(O)(c1cn(Cc2ccn3c(-c4ccc(C)nc4)c(C#N)cc3c2)nn1)C(F)(F)F", "note": "(stereo not shown) [Compound 1-72, 7-[4-(1-Hydroxy-1-trifluoromethyl-propyl)-[1,2,3]triazol-1-ylmethyl]-3-(6-methyl-pyridin-3-yl)-indolizine-2-carbonitrile]", "IC50": "< 300"}, {"smiles": "CCOC(=O)c1cc2cc(Cn3cc(C(O)(CC)C(F)(F)F)nn3)ccn2c1-c1ccc(F)nc1", "note": "(stereo not shown) [Compound 1-29, 3-(6-Fluoro-pyridin-3-yl)-7-[4-(1-hydroxy-1-trifluoromethyl-propyl) [1,2,3]triazol-1-ylmethyl]-indolizine-2-carb oxylic acid ethyl ester]", "IC50": "< 300"}, {"smiles": "CCC(O)(c1cn(Cc2ccn3c(-c4ccc(OC)nc4)c(C#N)cc3c2)nn1)C(F)(F)F", "note": "(stereo not shown) [Compound 1-57, 7-[4-(1-Hydroxy-1-trifluoromethyl-propyl)-[1,2,3]triazol-1-ylmethyl]-3-(6-methoxy-pyridin-3-yl)-indolizine-2-carbonitrile]", "IC50": "< 300"}, {"smiles": "CCC(O)(c1cn(Cc2ccn3c(C(C)=O)c(C(N)=O)cc3c2)nn1)C(F)(F)F", "note": "(stereo not shown) [Compound 1-67, 3-Acetyl-7-[4-(1-hydroxy-1-trifluoromethyl-propyl)-[1,2,3]triazol-1-ylmethyl]-indolizine-2-carboxylic acid amide]", "IC50": "> 1000"}, {"smiles": "CCC(O)(c1cn(Cc2ccn3c(-c4ccc(F)nc4)c(C#N)cc3c2)nn1)C(F)(F)F", "note": "(stereo not shown) [Compound 1-32, 3-(6-Fluoro-pyridin-3-yl)-7-[4-(1-hydroxy-1-trifluoromethyl-propyl)-[1,2,3]triazol-1-ylmethyl]-indolizine-2-carbonitrile]", "IC50": "< 300"}, {"smiles": "CCOC(=O)c1cc2cc(Cn3cc(C(O)(CC)C(F)(F)F)nn3)ccn2c1C(C)C", "note": "(single isomer, unassigned) [Compound 1-77, 7-[4-(1-Hydroxy-1-trifluoromethyl-propyl)-[1,2,3]triazol-1-ylmethyl]-3-isopropyl-indolizine-2-carboxylic acid ethyl ester]", "IC50": "< 300"}, {"smiles": "CCOC(=O)c1cc2cc(Cn3cc(C(CC)(OC(=O)c4ccc([N+](=O)[O-])cc4)C(F)(F)F)nn3)ccn2c1", "note": "(single isomer, unassigned) [Compound 1-86, 7-{4-[1-(4-Nitro-benzoyloxy)-1-trifluoromethyl-propyl]-[1,2,3]triazol-1-ylmethyl}-indolizine-2-carboxylic acid ethyl ester]", "IC50": "< 300"}, {"smiles": "CCC(O)(c1cn(Cc2ccn3c(-c4ccc(F)nc4)c(C(N)=O)cc3c2)nn1)C(F)(F)F", "note": "(stereo not shown) [Compound 1-31, 3-(6-Fluoro-pyridin-3-yl)-7-[4-(1-hydroxy-1-trifluoromethyl-propyl)-[1,2,3]triazol-1-ylmethyl]-indolizine-2-carboxylic acid amide]", "IC50": "> 1000"}]}]}
